Experiments:
[1] = biological target: T1, CCR5 (Homo sapiens, UniProt P51681); experiment: Displacement of radio-labelled CCR5 antagonist from Allo-T cell membranes; type: binding; conditions: membranes of human allo-reactive T cells; 2 nM [3H] CCR5 antagonist; 2 hours at room temperature
T1 construct: After 21 to 34 days culture, the membranes were prepared from the cells; endogenous in cells; host or cells: Allo-T cells (allo-reactive T cell line from human PBMCs), membrane preparation
Method: The ability of the compound of the present invention to inhibit the binding of MIP-1β (CCL-4) was measured:
An allo-reactive T cell line was generated by exposure of human peripheral blood mononuclear cells (PBMCs) to L-DR4/B7 fibroblasts (immobilised with glutaraldehyde fixation and irradiation) and subsequent expansion with anti-CD3 and IL-2 for 14 days. The resultant Allo-T cells were frozen. When required, the cells were grown and re-challenged with irradiated HLA-DR4+ve PBMCs and expanded with anti-CD3 and IL-2. After 21 to 34 days culture, the membranes were prepared from the cells. These membranes were incubated in 96-well plates with 2 nM of the radio-labelled CCR5 antagonist [^3H]1-{(3R)-3-(3,5-difluorophenyl)-3-[4-(methylsulfonyl)phenyl]propyl}-4-(2-{[4-(methylsulfonyl)phenyl]sulfonyl}ethyl)piperidine and various concentrations of the compound of the invention for 2 hours at room temperature. The plates were then harvested onto GF/B filter plates (which had been pre-soaked soaked in 0.3% PEI containing 0.2% BSA for 10 min at 4° C.) using a Packard Unifilter harvester using 10 wash steps. The amount of [^3H]1-{(3R)-3-(3,5-difluorophenyl)-3-[4-(methylsulfonyl)phenyl]propyl}-4-(2-{[4-(methylsulfonyl)phenyl]sulfonyl}ethyl)piperidine retained on the filter plates was determined by scintillation counting. […]

[2] = Rat pharmacokinetics after intravenous and oral dosing; type: in vivo; conditions: male Han Wistar rat; for clearance / half-life / Vd: Alderley Park Han Wistar, whole blood, intravenous 2 mg/kg; for clearance: blood clearance; for half-life: read-out: T½ (converted); for Vd: volume of distribution, read-out: Vdss; for F: bioavailability, oral 2 mg/kg vs intravenous 2 mg/kg
Method: The rat pharmacokinetic (PK) parameters blood clearance (CL), volume of distribution (Vdss) and half life (t1/2) are calculated by determining the concentration (exposure) of test compound in whole blood samples taken from rats at various, defined time points subsequent to the intra-venous dosing (administration) of formulated test compound. The rat PK parameter bioavailability (F) is calculated by determining the concentration (exposure) of test compound in whole blood samples taken from rats at various, defined time-points subsequent to the oral dosing (administration) of formulated test compound and then by comparison of the ratio of the dose normalized total oral exposure (AUCpo) with the dose normalized total intra-venous exposure (AUCiv). Fraction absorbed (Fabs) is a secondary PK parameter that is often calculated from a knowledge of the clearance (CL) and bioavailability (F) of a test compound. The equation for determination of Fabs is as follows: […]
where Qh is the species liver blood flow (ml/min/kg).
For intravenous dosing, test compounds are dissolved in dimethyl acetamide (DMA) and then diluted with water such that the final test compound concentration is 1 mg/ml and the composition of the formulation is 40% DMA: 60% water. Male rats (n=2, Alderley Park Han Wistar strain) are then administered, via the tail vein, the test compound formulation at a dose volume of 2 ml/kg bodyweight such that each rat receives a total test compound dose of 2 mg/kg bodyweight. Blood sampling post IV dosing is via needle stick puncture of the tail vein and is serial in design: two rats have blood samples taken at 5, 20, 40, 90, 180, 360, 720 and 1440 (cardiac puncture) minutes after dosing.
For oral dosing, test compounds are dissolved in dimethyl sulphoxide (DMSO and then diluted with hydroxymethyl cellulose (HPMC) 0.5% w/v-Tween 80 (0.1% v/v) such that the final test compound concentration is 1 mg/ml and the composition of the formulation is 5% DMSO:95% HPMC/Tween. Male rats (n=2, Alderley Park Han Wistar strain) are then administered, via oral gavage, the test compound formulation at a dose volume of 2 ml/kg bodyweight such that each rat receives a total test compound dose of 2 mg/kg bodyweight. Blood sampling post oral dosing is via needle stick puncture of the tail vein and is serial in design: two rats have blood samples taken at 15, 30, 60, 120, 180, 360, 720 and 1440 (cardiac puncture) minutes after dosing. All blood samples are collected into lithium heparin tubes to prevent clotting. Aliqouts of blood are then diluted 1:1 with water and then frozen at −20° C. prior to being assayed to determine test compound concentration.
Calibration standard samples are prepared by addition of known amounts of test compound to blank diluted (1:1) blood samples. Calibration standards and unknown samples are then diluted and mixed with 3 parts ice-cold acetonitrile (containing suitable internal standard) to precipitate proteinaceous material. Following centrifugation, sample and calibration standard supernatants are analysed for test compound concentration by HPLC with MS/MS (triple quad mass spectrometry) detection. Quantification of test compound concentrations in the blood samples taken from the rats is achieved by reference to a standard curve constructed from the calibration standard samples.
Blood concentration—time point data and other information such as IV and PO dose is then entered into and analysed by a commercially available non-linear regression software program (WinNonLin version 4.1, Pharsight Corporation) to determine the rat PK parameters of interest (as described above).

T1 sequence (P51681 whole entry): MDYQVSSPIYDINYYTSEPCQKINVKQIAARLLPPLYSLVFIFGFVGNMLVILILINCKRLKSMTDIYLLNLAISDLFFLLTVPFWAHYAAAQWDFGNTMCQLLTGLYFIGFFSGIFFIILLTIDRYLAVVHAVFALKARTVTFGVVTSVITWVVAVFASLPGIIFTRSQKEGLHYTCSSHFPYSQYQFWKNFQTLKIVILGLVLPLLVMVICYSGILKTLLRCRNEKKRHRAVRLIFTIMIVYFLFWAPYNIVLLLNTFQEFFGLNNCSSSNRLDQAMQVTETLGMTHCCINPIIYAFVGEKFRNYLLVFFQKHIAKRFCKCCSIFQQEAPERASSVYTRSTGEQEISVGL

Row | SMILES | IC50 [1] [nM] | clearance [2] [mL/min/kg] | half-life [2] [h] | Vd [2] [L/kg] | F [2] [%]
1 | CCc1nnc(C(C)C)n1C1CCN([C@H](C)C[C@@H](c2cc(F)cc(F)c2)C2CCN(S(C)(=O)=O)CC2)CC1 (single isomer, unassigned) | 6.5 | 18 | 4 | 4.1 | 28
2 | Cc1nnc(C(C)C)n1C1CCN(C(C)C[C@@H](c2cc(F)cc(F)c2)C2CCN(S(C)(=O)=O)CC2)CC1 (single isomer, unassigned) [Comparator Compound A] | 32 | 37 | 2.7 | 4.9 | 1

From patent publication US20080139613A1, “Chemical Compound” (AstraZeneca AB, priority 2006, published 2008)
